Experimental data: patent US10780042B2, “Cosmetic compositions” (Symrise AG, priority 2015, dated 2020)

Key:
POMC gene expression = test: Particle induced POMC gene expression in human epidermal keratinocytes (qRT-PCR); assay type: cell-based
Description: (§1) Gene expression was induced by different model particles. […] The details are set out in Table 1:
(§2) Gene expression was analyzed via qRT-PCR.
(§3) Ginger root CO2 extract has been dissolved in DMSO and diluted in medium. […] Gene expression was analyzed via qRT-PCR. […] Table 7 compiles the results for ginger root CO2 extract altered POMC and IL-6 gene expression
(§4) Purple coneflower pressed juice has been dissolved directly in medium. […] Gene expression was analyzed via qRT-PCR. […] Table 8 compiles the results for purple coneflower pressed juice altered POMC and IL-6 gene expression
(§5) Gene expression was analyzed via qRT-PCR. […] Table 9 compiles the results for purple coneflower pressed juice altered POMC and IL-6 gene expression

5-lipoxygenase = molecular target: T1, 5-lipoxygenase (Homo sapiens, UniProt P09917); conditions: described in WO 200 230385 A2 (Henkel); cited from earlier work
T1 sequence (P09917 1-674): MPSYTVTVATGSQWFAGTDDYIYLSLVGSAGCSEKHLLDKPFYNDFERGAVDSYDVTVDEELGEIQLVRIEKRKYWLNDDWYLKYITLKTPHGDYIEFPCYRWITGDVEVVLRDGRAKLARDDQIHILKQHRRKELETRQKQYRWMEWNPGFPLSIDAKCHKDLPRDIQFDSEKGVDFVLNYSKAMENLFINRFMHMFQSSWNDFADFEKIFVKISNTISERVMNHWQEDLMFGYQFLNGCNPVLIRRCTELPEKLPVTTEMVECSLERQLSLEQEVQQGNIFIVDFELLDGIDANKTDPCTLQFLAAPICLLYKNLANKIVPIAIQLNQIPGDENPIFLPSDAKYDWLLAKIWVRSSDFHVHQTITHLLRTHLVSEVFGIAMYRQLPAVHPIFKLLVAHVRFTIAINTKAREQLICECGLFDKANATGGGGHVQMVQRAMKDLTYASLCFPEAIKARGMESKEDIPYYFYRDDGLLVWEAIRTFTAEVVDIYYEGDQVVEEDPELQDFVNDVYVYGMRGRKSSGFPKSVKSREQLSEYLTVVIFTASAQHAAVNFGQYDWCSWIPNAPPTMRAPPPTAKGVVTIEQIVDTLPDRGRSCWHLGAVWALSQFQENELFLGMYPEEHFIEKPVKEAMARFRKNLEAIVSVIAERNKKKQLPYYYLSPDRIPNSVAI

cyclooxygenase-1 = cyclooxygenase-1 (Homo sapiens, UniProt P23219); conditions: described in WO 200 230385 A2 (Henkel); cited from earlier work
MMP1 gene expression = test: Particle induced MMP1 gene expression in human epidermal keratinocytes (qRT-PCR); assay type: cell-based
Description: as §1, §2

CYP1A1 gene expression = test: Particle induced CYP1A1 gene expression in human epidermal keratinocytes (qRT-PCR); assay type: cell-based; conditions: for CYP1A1 Induction mean ± SE: 10 μM BDDI
Description: as §1, §2

IL-6 gene expression = test: Particle induced IL-6 gene expression in human epidermal keratinocytes (qRT-PCR); assay type: cell-based
Description: as §1, §2, §3, §4, §5

AhR = molecular target: T2, AhR (Homo sapiens, UniProt P35869); conditions: stated as known; cited from earlier work
T2 sequence (P35869 11-848): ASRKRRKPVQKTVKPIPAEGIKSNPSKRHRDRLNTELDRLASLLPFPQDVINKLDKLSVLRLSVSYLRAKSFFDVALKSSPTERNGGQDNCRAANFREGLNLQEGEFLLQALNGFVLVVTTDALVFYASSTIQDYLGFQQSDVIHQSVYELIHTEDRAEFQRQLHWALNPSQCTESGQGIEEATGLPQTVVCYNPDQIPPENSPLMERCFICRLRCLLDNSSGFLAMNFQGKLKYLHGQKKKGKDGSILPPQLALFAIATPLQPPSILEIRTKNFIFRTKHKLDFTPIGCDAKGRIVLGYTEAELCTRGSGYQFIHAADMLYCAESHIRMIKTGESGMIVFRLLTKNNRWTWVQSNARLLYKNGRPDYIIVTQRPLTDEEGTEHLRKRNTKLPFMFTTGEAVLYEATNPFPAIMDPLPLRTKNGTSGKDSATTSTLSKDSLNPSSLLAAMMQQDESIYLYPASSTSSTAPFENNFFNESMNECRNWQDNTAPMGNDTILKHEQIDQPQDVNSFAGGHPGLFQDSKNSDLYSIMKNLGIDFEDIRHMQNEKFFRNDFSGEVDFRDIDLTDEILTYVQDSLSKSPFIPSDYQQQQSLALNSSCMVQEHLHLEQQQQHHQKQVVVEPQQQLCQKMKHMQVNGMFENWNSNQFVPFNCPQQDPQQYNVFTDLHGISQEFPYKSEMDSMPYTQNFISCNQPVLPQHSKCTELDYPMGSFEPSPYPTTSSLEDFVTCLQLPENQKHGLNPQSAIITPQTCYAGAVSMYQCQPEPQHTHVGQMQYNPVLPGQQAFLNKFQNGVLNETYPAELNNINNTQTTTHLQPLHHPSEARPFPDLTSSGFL

Chain of cyclooxygenase-1 (P23219 24-599, species assumed): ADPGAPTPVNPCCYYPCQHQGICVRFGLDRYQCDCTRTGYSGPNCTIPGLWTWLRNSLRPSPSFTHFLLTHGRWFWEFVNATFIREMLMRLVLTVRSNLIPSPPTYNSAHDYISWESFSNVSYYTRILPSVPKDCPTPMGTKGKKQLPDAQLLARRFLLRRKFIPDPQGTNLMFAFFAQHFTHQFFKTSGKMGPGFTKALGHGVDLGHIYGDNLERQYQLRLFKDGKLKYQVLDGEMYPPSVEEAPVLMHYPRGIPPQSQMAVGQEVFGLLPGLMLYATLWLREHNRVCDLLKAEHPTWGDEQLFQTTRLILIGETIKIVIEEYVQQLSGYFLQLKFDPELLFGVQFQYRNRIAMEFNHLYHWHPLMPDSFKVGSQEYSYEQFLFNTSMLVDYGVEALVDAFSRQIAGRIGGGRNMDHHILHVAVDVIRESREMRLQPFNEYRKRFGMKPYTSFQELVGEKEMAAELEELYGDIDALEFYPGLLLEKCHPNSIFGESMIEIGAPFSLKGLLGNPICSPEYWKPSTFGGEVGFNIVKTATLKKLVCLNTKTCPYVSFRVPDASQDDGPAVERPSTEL

Compound	inhibition of particle induced POMC gene expression (in words) (POMC gene expression)	inhibition of 5-lipoxygenase (in words) (5-lipoxygenase)	inhibition of cyclooxygenase-1 activity (in words) (cyclooxygenase-1)	inhibition of particle induced MMP1 gene expression (in words) (MMP1 gene expression)	CYP1A1 Induction mean ± SE (CYP1A1 gene expression; NHEK adult, 6 h, SRM1650 1.5 μg/cm2, untreated = 1, particles alone 2.90)	CYP1A1 Induction mean ± SE (CYP1A1 gene expression; NHEK adult, 6 h, SRM2975 1.5 μg/cm2, untreated = 1, particles alone 1.03)	CYP1A1 Induction mean ± SE (CYP1A1 gene expression; NHEK adult, 24 h, SRM2975 1.5 μg/cm2, untreated = 1, particles alone 4.90)	inhibition of particle induced Cyp1A1 gene expression (in words) (CYP1A1 gene expression; indoor as well as outdoor model particles)	CYP1A1 Induction mean ± SE (CYP1A1 gene expression; indoor particles Huber990 1.5 μg/cm2, 6 h, untreated = 1, particles alone 2.70)	CYP1A1 Induction mean ± SE (CYP1A1 gene expression; indoor particles Huber990 1.5 μg/cm2, 24 h, untreated = 1, particles alone 2.90)	inhibition of particle induced IL-6 gene expression (in words) (IL-6 gene expression)	upregulation of the AhR by UVB radiation (in words) (AhR)
CC1(C)CCC[C@]2(C)C3CC(=O)O[C@]3(C)CC[C@@H]12 (stereo partly drawn) [Sclareolide, (3aR,5aS,9aS,9bR)-decahydro-3a,6,6,9a-tetramethyl-naphtha[2,1-b]furan-2(1H)-one]	capable to inhibit	inhibition	inhibition									
C=C[C@](C)(O)CC[C@@H]1[C@@]2(C)CCCC(C)(C)[C@@H]2CC[C@@]1(C)O [sclareol, reference compound]		inhibition	inhibition									
E/Z-2-benzylindene-5,6-dimethoxy-3,3-dimethylindan-1-one [BDDI]	capable to inhibit			capable to inhibit	0.02 ± 0.00	0.20 ± 0.00	0.01 ± 0.00	capable to inhibit	0.05 ± 0.00	0.20 ± 0.00	capable to inhibit	prevent the upregulation
